From ChEMBL document CHEMBL4483862, “Open-source discovery of chemical leads for next-generation chemoprotective antimalarials” (2018)

System: Plasmodium berghei
Assay: Luciferase/luciferin-expressing antifolate-resistant parasites were used to infect a culture of HepG2 cells that were pre-incubated with compounds. Infected hepatocytes emit light due to the luciferase reaction. Assay results are presented as the percent inhibition of light emission compared to control. […]
Format: functional
Conditions: sporozoite; for IC90: read-out: LUCIFERASE INFECTION ASSAY - IC90
[1] = read-out: LUCIFERASE INFECTION ASSAY - IC50

Row | SMILES | IC90 [µM] | IC50 [1] [µM] | further results
1 | Cn1c(Nc2ccccc2)nc2cnc(-c3ccc(Cl)cc3)cc21 | > 10 | – | IC50 (PBLUC_HILL_SLOPE 23.8, PBLUC_R_SQUARED 0.319, read-out: LUCIFERASE INFECTION ASSAY - IC50): 9.73 µM
2 | CS(=O)(=O)Nc1cccc(-c2cnc(N)c(-c3cccc(C(F)(F)F)c3)c2)c1 | 0.0724 | – | IC50 (HEPG2TOX_HILL_SLOPE 0.275, HEPG2TOX_R_SQUARED 0.333, PBLUC_HILL_SLOPE 1.7, PBLUC_R_SQUARED 0.794, read-out: LUCIFERASE INFECTION ASSAY - IC50): 0.0199 µM
3 | CCCc1cc(=O)n2ncc(-c3ccccc3)c2[nH]1 | 12.2 | – | IC50 (HEPG2TOX_HILL_SLOPE 0.383, HEPG2TOX_R_SQUARED 0.727, PBLUC_HILL_SLOPE 12.3, PBLUC_R_SQUARED 0.782, read-out: LUCIFERASE INFECTION ASSAY - IC50): 10.2 µM
4 | Cc1nc(N/N=C/c2ccc(O)cc2)c2cnn(-c3ccccc3)c2n1 | > 10 | > 10 | –
5 | CNC(=O)c1ccc(-c2cc(C(F)(F)F)n(C)n2)s1 | > 11.4 | > 11.4 | –
6 | Nc1cc(-c2ccc(Br)s2)n[nH]1 | > 10 | > 10 | –
7 | CC(C)(C)C(=O)CSc1nnc(-c2ccccc2F)[nH]1 | > 10 | > 10 | –
8 | Cc1cc(NC(=O)COC(=O)CCCOc2ccc(Cl)cc2C)no1 | > 10 | – | IC50 (FFLUC_HILL_SLOPE 1.69, FFLUC_R_SQUARED 0.223, read-out: LUCIFERASE INFECTION ASSAY - IC50): > 10 µM
9 | COc1ccc(-c2nonc2NC(=O)c2sc3cc(C)ccc3c2Cl)cc1 | 6.5 | – | IC50 (HEPG2TOX_HILL_SLOPE 8.9, HEPG2TOX_R_SQUARED 0.644, PBLUC_HILL_SLOPE 6.34, PBLUC_R_SQUARED 0.0844, read-out: LUCIFERASE INFECTION ASSAY - IC50): 4.6 µM
10 | Cc1ccc2c(CSc3nc(N)c(C#N)cc3C#N)cc(=O)oc2c1C | 2.94 | – | IC50 (FFLUC_HILL_SLOPE 4.09, FFLUC_R_SQUARED 0.386, HEPG2TOX_HILL_SLOPE 1.27, HEPG2TOX_R_SQUARED 0.917, PBLUC_HILL_SLOPE 1.89, PBLUC_R_SQUARED 0.826, read-out: LUCIFERASE INFECTION ASSAY - IC50): 0.918 µM
11 | CCCCCn1nc(C(=O)N2CCN(Cc3nc4ccccc4s3)CC2)c2ccccc2c1=O | > 10 | > 10 | –
12 | CN1CCN(c2ccc(Cl)cc2NC(=O)c2cccc(Oc3ccccc3)c2)CC1 | 2.23 | – | IC50 (PBLUC_HILL_SLOPE 1.31, PBLUC_R_SQUARED 0.699, read-out: LUCIFERASE INFECTION ASSAY - IC50): 0.415 µM
13 | FC(F)(F)c1nc2ccccc2nc1N/N=C/c1ccc(Cl)cc1 | 9.28 | – | IC50 (HEPG2TOX_HILL_SLOPE 7.63, HEPG2TOX_R_SQUARED 0.926, PBLUC_HILL_SLOPE 14.9, PBLUC_R_SQUARED 0.207, read-out: LUCIFERASE INFECTION ASSAY - IC50): 8 µM
14 | Cc1cc(-n2c(C)cc(/C=C3\S/C(=N\C4CCCC4)NC3=O)c2C)no1 | > 10 | – | IC50 (PBLUC_HILL_SLOPE 2.3, PBLUC_R_SQUARED 0.376, read-out: LUCIFERASE INFECTION ASSAY - IC50): 5.21 µM
15 | COc1cc(CN(C)C(=O)c2ccc3c(c2)S(=O)(=O)N=C2CCCCCN23)ccc1OC(F)F | > 10 | – | IC50 (HEPG2TOX_HILL_SLOPE 4.17, HEPG2TOX_R_SQUARED 0.672, PBLUC_HILL_SLOPE 0.764, PBLUC_R_SQUARED 0.62, read-out: LUCIFERASE INFECTION ASSAY - IC50): 1.97 µM
16 | COc1ccccc1-c1cc(-c2ccccc2N(C)C)cnc1N | > 10.3 | – | IC50 (HEPG2TOX_HILL_SLOPE 3.39, HEPG2TOX_R_SQUARED 0.524, PBLUC_HILL_SLOPE 1.95, PBLUC_R_SQUARED 0.212, read-out: LUCIFERASE INFECTION ASSAY - IC50): 5.47 µM
17 | O=C(NCc1ccc(-c2nc3ccccc3s2)cc1)c1ccco1 | 3.45 | 2.81 | –
18 | CN(C)Cc1ccc(-c2ccccc2CNC(=O)CC2CC3CCC2C3)cc1 (stereo unspecified) | > 10 | – | IC50 (PBLUC_HILL_SLOPE 2, PBLUC_R_SQUARED 0.172, read-out: LUCIFERASE INFECTION ASSAY - IC50): > 10 µM
19 | COCc1[nH]n2c3cccc(=O)c-3nnc2c1-c1ccccc1 | 8.25 | – | IC50 (HEPG2TOX_HILL_SLOPE 2.72, HEPG2TOX_R_SQUARED 0.697, PBLUC_HILL_SLOPE 5.05, PBLUC_R_SQUARED 0.588, read-out: LUCIFERASE INFECTION ASSAY - IC50): 5.34 µM
20 | Cc1cc(C)c(-c2csc(NC(=O)c3nnc(O)c4ccccc34)n2)c(C)c1 | 5.46 | 3.82 | –
21 | COc1ccc(-c2nn(-c3ccccc3)cc2/C=C/C(=O)OCc2ncc(Cl)n2C)cc1OC | > 10 | > 10 | –
22 | CSc1sc(-c2ccnc(SCc3ccc(Cl)cc3)n2)c(-c2ccccc2)c1C#N | > 7.08 | – | IC50 (PBLUC_HILL_SLOPE 3.73, PBLUC_R_SQUARED 0.295, read-out: LUCIFERASE INFECTION ASSAY - IC50): 4.71 µM

Row | SMILES | IC90 [µM] | IC50 [1] [µM] | further results
23 | Clc1cncc(Cl)c1N1CCN(c2ccc(-c3cccnc3)cn2)CC1 | > 8.54 | 0.996 | –
24 | COc1ccccc1N(C)S(=O)(=O)c1ccc(Cl)c(C(=O)Nc2cccc(C)n2)c1 | 2.83 | – | IC50 (PBLUC_HILL_SLOPE 3.61, PBLUC_R_SQUARED 0.716, read-out: LUCIFERASE INFECTION ASSAY - IC50): 1.54 µM
25 | CC(C)Cc1ccc(CN2CCC3(CC2)C(=O)N(CC(C)C)C(=O)N3C)cc1 | > 8.56 | – | IC50 (HEPG2TOX_HILL_SLOPE 2.88, HEPG2TOX_R_SQUARED 0.972, PBLUC_HILL_SLOPE 3.02, PBLUC_R_SQUARED 0.492, read-out: LUCIFERASE INFECTION ASSAY - IC50): 5.03 µM
26 | NC(Cc1ccc(Cl)cc1)c1csc(Nc2nncc3ccccc23)n1 (stereo unspecified) | > 8.64 | – | IC50 (PBLUC_HILL_SLOPE 1.01, PBLUC_R_SQUARED 0.151, read-out: LUCIFERASE INFECTION ASSAY - IC50): 5.44 µM
27 | Cc1nc(CCNC(=O)Cc2cn(-c3ccccc3)nc2-c2ccc(Cl)cc2)cs1 | > 10 | – | IC50 (HEPG2TOX_HILL_SLOPE 0.133, HEPG2TOX_R_SQUARED 0.316, PBLUC_HILL_SLOPE 7.24, PBLUC_R_SQUARED 0.0479, read-out: LUCIFERASE INFECTION ASSAY - IC50): 8.62 µM
28 | CN(C)CCNC(=O)c1ccc(-c2cn3c(-c4ccc5c(c4)OCO5)cnc3cn2)cc1 | > 7.68 | – | IC50 (PBLUC_HILL_SLOPE 12, PBLUC_R_SQUARED 0.209, read-out: LUCIFERASE INFECTION ASSAY - IC50): > 7.68 µM
29 | CN(C)CCCOc1ccc(-c2ccc(C(C)(C)C)cc2)cn1 | > 10.6 | – | IC50 (PBLUC_HILL_SLOPE 0.428, PBLUC_R_SQUARED 0.727, read-out: LUCIFERASE INFECTION ASSAY - IC50): 0.0859 µM
30 | N=C(N)SCc1csc(-c2ccc(Br)cc2)n1 | > 9.05 | > 9.05 | –
31 | COc1ccc(CC(N)c2csc(NC(=O)Nc3ccccc3Oc3ccccc3)n2)cc1 (stereo unspecified) | > 7.17 | > 7.17 | –
32 | c1ccc(OCCCn2c(CN3CCCCC3)nc3ccccc32)cc1 | > 9.44 | – | IC50 (PBLUC_HILL_SLOPE 1.54, PBLUC_R_SQUARED 0.0855, read-out: LUCIFERASE INFECTION ASSAY - IC50): > 9.44 µM
33 | Cc1c(OCc2ccc(Br)cc2)ccc2c1OC(C)(C)C=C2 | 0.652 | 0.199 | –
34 | C/N=c1\scc(-c2ccc(OC(F)F)cc2)n1/N=C/c1ccccc1Br | 3.26 | – | IC50 (HEPG2TOX_HILL_SLOPE 2.13, HEPG2TOX_R_SQUARED 0.347, PBLUC_HILL_SLOPE 0.898, PBLUC_R_SQUARED 0.747, read-out: LUCIFERASE INFECTION ASSAY - IC50): 0.283 µM
35 | COc1ccccc1-c1cc2c(Nc3ccc(OC(F)(F)F)cc3)nccc2n1C | 8.42 | – | IC50 (FFLUC_HILL_SLOPE 12.5, FFLUC_R_SQUARED 0.343, HEPG2TOX_HILL_SLOPE 2.16, HEPG2TOX_R_SQUARED 0.708, PBLUC_HILL_SLOPE 2.92, PBLUC_R_SQUARED 0.46, read-out: LUCIFERASE INFECTION ASSAY - IC50): 3.97 µM
36 | CCOC(=O)C1=C(CSc2nc3ccccc3c(=O)n2-c2ccc(OC(F)F)cc2)NC(=O)NC1C (stereo unspecified) | > 10 | – | IC50 (HEPG2TOX_HILL_SLOPE 1.17, HEPG2TOX_R_SQUARED 0.429, PBLUC_HILL_SLOPE 8.23, PBLUC_R_SQUARED 0.327, read-out: LUCIFERASE INFECTION ASSAY - IC50): 8.35 µM
37 | COc1cc(OC)c2[nH]c(C(=O)NCCc3ccc(-c4csc(C)n4)s3)cc2c1 | > 10 | > 10 | –
38 | CCN(c1ccccc1)S(=O)(=O)c1ccc(C(=O)N2CCN(c3cccc(C)c3C)CC2)cc1 | 5.07 | 4.15 | –
39 | CNc1nc2cnc(Nc3cccc(OC(F)(F)F)c3)cc2n1-c1cc(OC)c(OC)c(OC)c1 | > 10 | – | IC50 (PBLUC_HILL_SLOPE 2.6, PBLUC_R_SQUARED 0.253, read-out: LUCIFERASE INFECTION ASSAY - IC50): 6.55 µM
40 | O=C(NC(=S)NNc1ncc(C(F)(F)F)cc1Cl)c1cccs1 | 1.1 | – | IC50 (FFLUC_HILL_SLOPE 14.4, FFLUC_R_SQUARED 0.344, HEPG2TOX_HILL_SLOPE 0.95, HEPG2TOX_R_SQUARED 0.974, PBLUC_HILL_SLOPE 2.04, PBLUC_R_SQUARED 0.707, read-out: LUCIFERASE INFECTION ASSAY - IC50): 0.374 µM
41 | CC1=C(C(=O)OC2CCCCC2)C(c2ccccc2Br)CC(=O)N1 (stereo unspecified) | > 8.41 | – | IC50 (PBLUC_HILL_SLOPE 15.2, PBLUC_R_SQUARED 0.697, read-out: LUCIFERASE INFECTION ASSAY - IC50): 7.66 µM
42 | Cc1nc(N2N=C3/C(=C/c4ccc(F)cc4)CCCC3C2c2ccc(F)cc2)sc1C(=O)N(C)C (stereo unspecified) | > 10 | > 10 | –
43 | COc1cc(OC)c(C(=O)NC(C)C23CC4CC(CC(C4)C2)C3)cc1OC (stereo unspecified) | 9.64 | – | IC50 (PBLUC_HILL_SLOPE 2.98, PBLUC_R_SQUARED 0.335, read-out: LUCIFERASE INFECTION ASSAY - IC50): 4.61 µM
